Assay results from ChEMBL document CHEMBL3044830, “Synthesis, characterization, antibacterial, antifungal, and immunomodulating activities of gatifloxacin derivatives” (Med Chem Res, 2010).

Experiments:
Fusarium solani [1] = assay: Antifungal activity against Fusarium solani assessed as concentration required to obtain a zone of inhibition of 40 mm after 7 days by disk diffusion method; type: functional
Proteus mirabilis [2] = assay: Antibacterial activity against Proteus mirabilis assessed as concentration required to obtain a zone of inhibition of 10 mm after 18 to 24 hr by disc diffusion method; type: functional
Trichophyton rubrum [3] = assay: Antifungal activity against Trichophyton rubrum assessed as concentration required to obtain a zone of inhibition of 40 mm after 7 days by disk diffusion method; type: functional
Fusarium solani [4] = assay: Antifungal activity against Fusarium solani assessed as concentration required to obtain a zone of inhibition of 20 mm after 7 days by disk diffusion method; type: functional
Shigella sp. [5] = assay: Antibacterial activity against Shigella typhi assessed as concentration required to obtain a zone of inhibition of 5 mm after 18 to 24 hr by disc diffusion method; type: functional
Blood [6] = assay: Antioxidant activity in Homo sapiens (human) whole blood assessed as inhibition of ROS production at 100 ug/ml after 30 min by luminol-enhanced chemiluminescence assay; type: functional; conditions: 0.5 h
Citrobacter [7] = assay: Antibacterial activity against Citrobacter assessed as concentration required to obtain a zone of inhibition of 5 mm after 18 to 24 hr by disk diffusion method; type: functional
[8] = Antibacterial activity against Hofmanni bacterium assessed as concentration required to obtain a zone of inhibition of 20 mm after 18 to 24 hr by disc diffusion method
Bacillus subtilis [9] = assay: Antibacterial activity against Bacillus subtilis assessed as concentration required to obtain a zone of inhibition of 5 mm after 18 to 24 hr by disk diffusion method; type: functional
Proteus mirabilis [10] = assay: Antibacterial activity against Proteus mirabilis assessed as concentration required to obtain a zone of inhibition of 5 mm after 18 to 24 hr by disc diffusion method; type: functional
Escherichia coli [11] = assay: Antibacterial activity against Escherichia coli assessed as concentration required to obtain a zone of inhibition of 20 mm after 18 to 24 hr by disk diffusion method; type: functional
Pseudomonas aeruginosa [12] = assay: Antibacterial activity against Pseudomonas aeruginosa assessed as concentration required to obtain a zone of inhibition of 5 mm after 18 to 24 hr by disk diffusion method; type: functional
Klebsiella pneumoniae [13] = assay: Antibacterial activity against Klebsiella pneumoniae assessed as concentration required to obtain a zone of inhibition of 5 mm after 18 to 24 hr by disk diffusion method; type: functional
Shigella sp. [14] = assay: Antibacterial activity against Shigella typhi assessed as concentration required to obtain a zone of inhibition of 20 mm after 18 to 24 hr by disc diffusion method; type: functional
Pseudomonas aeruginosa [15] = assay: Antibacterial activity against Pseudomonas aeruginosa assessed as concentration required to obtain a zone of inhibition of 20 mm after 18 to 24 hr by disk diffusion method; type: functional
Proteus mirabilis [16] = assay: Antibacterial activity against Proteus mirabilis assessed as concentration required to obtain a zone of inhibition of 20 mm after 18 to 24 hr by disc diffusion method; type: functional
Citrobacter [17] = assay: Antibacterial activity against Citrobacter assessed as concentration required to obtain a zone of inhibition of 10 mm after 18 to 24 hr by disk diffusion method; type: functional
Candida albicans [18] = assay: Antifungal activity against Candida albicans assessed as concentration required to obtain a zone of inhibition of 20 mm after 7 days by disk diffusion method; type: functional
Klebsiella pneumoniae [19] = assay: Antibacterial activity against Klebsiella pneumoniae assessed as concentration required to obtain a zone of inhibition of 10 mm after 18 to 24 hr by disk diffusion method; type: functional
Trichophyton rubrum [20] = assay: Antifungal activity against Trichophyton rubrum assessed as concentration required to obtain a zone of inhibition of 20 mm after 7 days by disk diffusion method; type: functional
T-cell [21] = assay: Anti-inflammatory activity in Homo sapiens (human) T lymphocytes assessed as inhibition of PHA-induced [3H] thymidine uptake at 12.5 ug/ml incubated for 72 hr prior to [3H]thymidine addition measured after 18 hr by liquid scintillation method; type: functional
Klebsiella pneumoniae [22] = assay: Antibacterial activity against Klebsiella pneumoniae assessed as concentration required to obtain a zone of inhibition of 20 mm after 18 to 24 hr by disk diffusion method; type: functional
Shigella flexneri [23] = assay: Antibacterial activity against Shigella flexneri assessed as concentration required to obtain a zone of inhibition of 5 mm after 18 to 24 hr by disk diffusion method; type: functional
Blood [24] = assay: Antioxidant activity in Homo sapiens (human) whole blood assessed as inhibition of ROS production at 50 ug/ml after 30 min by luminol-enhanced chemiluminescence assay; type: functional; conditions: 0.5 h
Bacillus subtilis [25] = assay: Antibacterial activity against Bacillus subtilis assessed as concentration required to obtain a zone of inhibition of 20 mm after 18 to 24 hr by disk diffusion method; type: functional
Escherichia coli [26] = assay: Antibacterial activity against Escherichia coli assessed as concentration required to obtain a zone of inhibition of 10 mm after 18 to 24 hr by disk diffusion method; type: functional
Bacillus subtilis [27] = assay: Antibacterial activity against Bacillus subtilis assessed as concentration required to obtain a zone of inhibition of 10 mm after 18 to 24 hr by disk diffusion method; type: functional
Escherichia coli [28] = assay: Antibacterial activity against Escherichia coli assessed as concentration required to obtain a zone of inhibition of 5 mm after 18 to 24 hr by disk diffusion method; type: functional
Blood [29] = assay: Antioxidant activity in Homo sapiens (human) whole blood assessed as inhibition of ROS production at 12.5 ug/ml after 30 min by luminol-enhanced chemiluminescence assay; type: functional; conditions: 0.5 h
Pseudomonas aeruginosa [30] = assay: Antibacterial activity against Pseudomonas aeruginosa assessed as concentration required to obtain a zone of inhibition of 10 mm after 18 to 24 hr by disk diffusion method; type: functional
Candida albicans [31] = assay: Antifungal activity against Candida albicans assessed as concentration required to obtain a zone of inhibition of 40 mm after 7 days by disk diffusion method; type: functional
T-cell [32] = assay: Anti-inflammatory activity in Homo sapiens (human) T lymphocytes assessed as inhibition of PHA-induced [3H] thymidine uptake at 3.12 ug/ml incubated for 72 hr prior to [3H]thymidine addition measured after 18 hr by liquid scintillation method; type: functional
[33] = Antibacterial activity against Hofmanni bacterium assessed as concentration required to obtain a zone of inhibition of 10 mm after 18 to 24 hr by disc diffusion method
T-cell [34] = assay: Anti-inflammatory activity in Homo sapiens (human) T lymphocytes assessed as inhibition of PHA-induced [3H] thymidine uptake at 50 ug/ml incubated for 72 hr prior to [3H]thymidine addition measured after 18 hr by liquid scintillation method; type: functional
Citrobacter [35] = assay: Antibacterial activity against Citrobacter assessed as concentration required to obtain a zone of inhibition of 20 mm after 18 to 24 hr by disk diffusion method; type: functional
Shigella flexneri [36] = assay: Antibacterial activity against Shigella flexneri assessed as concentration required to obtain a zone of inhibition of 20 mm after 18 to 24 hr by disk diffusion method; type: functional
[37] = Antibacterial activity against Hofmanni bacterium assessed as concentration required to obtain a zone of inhibition of 5 mm after 18 to 24 hr by disc diffusion method
Blood [38] = assay: Antioxidant activity in Homo sapiens (human) whole blood assessed as inhibition of ROS production after 30 min by luminol-enhanced chemiluminescence assay; type: functional, tissue-based; conditions: 0.5 h
Shigella flexneri [39] = assay: Antibacterial activity against Shigella flexneri assessed as concentration required to obtain a zone of inhibition of 10 mm after 18 to 24 hr by disk diffusion method; type: functional
T-cell [40] = assay: Anti-inflammatory activity in Homo sapiens (human) T lymphocytes assessed as inhibition of PHA-induced [3H] thymidine uptake incubated for 72 hr prior to [3H]thymidine addition measured after 18 hr by liquid scintillation method; type: functional, cell-based

## COc1c(N2CCNC(C)C2)c(F)cc2c(=O)c(C(=O)O)cn(C3CC3)c12 (stereo not given) [GATIFLOXACIN]
Fusarium solani [1]
  Activity: 18 µg/mL
Proteus mirabilis [2]
  Activity: 15 µg/mL
Trichophyton rubrum [3]
  Activity: 14 µg/mL
Fusarium solani [4]
  Activity: 12 µg/mL
Shigella sp. [5]
  Activity: 8 µg/mL
Blood [6]
  inhibition at 100 µg/mL: 84.7%
Citrobacter [7]
  Activity: 15 µg/mL
[8]
  Activity: 15 µg/mL
Bacillus subtilis [9]
  Activity: 11 µg/mL
Proteus mirabilis [10]
  Activity: 9 µg/mL
Escherichia coli [11]
  Activity: 17 µg/mL
Pseudomonas aeruginosa [12]
  Activity: 8 µg/mL
Klebsiella pneumoniae [13]
  Activity: 9 µg/mL
Shigella sp. [14]
  Activity: 21 µg/mL
Pseudomonas aeruginosa [15]
  Activity: 14 µg/mL
Proteus mirabilis [16]
  Activity: 19 µg/mL
Citrobacter [17]
  Activity: 23 µg/mL
Candida albicans [18]
  Activity: 8 µg/mL
Klebsiella pneumoniae [19]
  Activity: 14 µg/mL
Trichophyton rubrum [20]
  Activity: 12 µg/mL
T-cell [21]
  inhibition at 12.5 µg/mL: -97.9%
Klebsiella pneumoniae [22]
  Activity: 19 µg/mL
Shigella flexneri [23]
  Activity: 9 µg/mL
Blood [24]
  inhibition at 50 µg/mL: 66%
Bacillus subtilis [25]
  Activity: 17 µg/mL
Escherichia coli [26]
  Activity: 12 µg/mL
Bacillus subtilis [27]
  Activity: 15 µg/mL
Escherichia coli [28]
  Activity: 7.5 µg/mL
Blood [29]
  inhibition at 12.5 µg/mL: 19.7%
Pseudomonas aeruginosa [30]
  Activity: 12 µg/mL
Candida albicans [31]
  Activity: 9 µg/mL
T-cell [32]
  inhibition at 3.12 µg/mL: -71.1%
[33]
  Activity: 13 µg/mL
T-cell [34]
  inhibition at 50 µg/mL: -25.2%
Citrobacter [35]
  Activity: 26 µg/mL
Shigella flexneri [36]
  Activity: 23 µg/mL
[37]
  Activity: 8 µg/mL
Blood [38]
  IC50: 31 µg/mL
Shigella flexneri [39]
  Activity: 16 µg/mL
T-cell [40]
  IC50: > 50 µg/mL
